Drawing on US9382258B2, “Agents for treating pain and uses thereof” (AbbVie Inc., priority 2012, dated 2016), this text covers IC50 for 21 compounds.

For the assay, the target named is T1, human Cav2.2 (Homo sapiens, UniProt Q00975).
T1 construct: cells endogenously expressing human Cav2.2; endogenous in cells; host or cells: IMR32 cells
T1 sequence (Q00975 whole entry): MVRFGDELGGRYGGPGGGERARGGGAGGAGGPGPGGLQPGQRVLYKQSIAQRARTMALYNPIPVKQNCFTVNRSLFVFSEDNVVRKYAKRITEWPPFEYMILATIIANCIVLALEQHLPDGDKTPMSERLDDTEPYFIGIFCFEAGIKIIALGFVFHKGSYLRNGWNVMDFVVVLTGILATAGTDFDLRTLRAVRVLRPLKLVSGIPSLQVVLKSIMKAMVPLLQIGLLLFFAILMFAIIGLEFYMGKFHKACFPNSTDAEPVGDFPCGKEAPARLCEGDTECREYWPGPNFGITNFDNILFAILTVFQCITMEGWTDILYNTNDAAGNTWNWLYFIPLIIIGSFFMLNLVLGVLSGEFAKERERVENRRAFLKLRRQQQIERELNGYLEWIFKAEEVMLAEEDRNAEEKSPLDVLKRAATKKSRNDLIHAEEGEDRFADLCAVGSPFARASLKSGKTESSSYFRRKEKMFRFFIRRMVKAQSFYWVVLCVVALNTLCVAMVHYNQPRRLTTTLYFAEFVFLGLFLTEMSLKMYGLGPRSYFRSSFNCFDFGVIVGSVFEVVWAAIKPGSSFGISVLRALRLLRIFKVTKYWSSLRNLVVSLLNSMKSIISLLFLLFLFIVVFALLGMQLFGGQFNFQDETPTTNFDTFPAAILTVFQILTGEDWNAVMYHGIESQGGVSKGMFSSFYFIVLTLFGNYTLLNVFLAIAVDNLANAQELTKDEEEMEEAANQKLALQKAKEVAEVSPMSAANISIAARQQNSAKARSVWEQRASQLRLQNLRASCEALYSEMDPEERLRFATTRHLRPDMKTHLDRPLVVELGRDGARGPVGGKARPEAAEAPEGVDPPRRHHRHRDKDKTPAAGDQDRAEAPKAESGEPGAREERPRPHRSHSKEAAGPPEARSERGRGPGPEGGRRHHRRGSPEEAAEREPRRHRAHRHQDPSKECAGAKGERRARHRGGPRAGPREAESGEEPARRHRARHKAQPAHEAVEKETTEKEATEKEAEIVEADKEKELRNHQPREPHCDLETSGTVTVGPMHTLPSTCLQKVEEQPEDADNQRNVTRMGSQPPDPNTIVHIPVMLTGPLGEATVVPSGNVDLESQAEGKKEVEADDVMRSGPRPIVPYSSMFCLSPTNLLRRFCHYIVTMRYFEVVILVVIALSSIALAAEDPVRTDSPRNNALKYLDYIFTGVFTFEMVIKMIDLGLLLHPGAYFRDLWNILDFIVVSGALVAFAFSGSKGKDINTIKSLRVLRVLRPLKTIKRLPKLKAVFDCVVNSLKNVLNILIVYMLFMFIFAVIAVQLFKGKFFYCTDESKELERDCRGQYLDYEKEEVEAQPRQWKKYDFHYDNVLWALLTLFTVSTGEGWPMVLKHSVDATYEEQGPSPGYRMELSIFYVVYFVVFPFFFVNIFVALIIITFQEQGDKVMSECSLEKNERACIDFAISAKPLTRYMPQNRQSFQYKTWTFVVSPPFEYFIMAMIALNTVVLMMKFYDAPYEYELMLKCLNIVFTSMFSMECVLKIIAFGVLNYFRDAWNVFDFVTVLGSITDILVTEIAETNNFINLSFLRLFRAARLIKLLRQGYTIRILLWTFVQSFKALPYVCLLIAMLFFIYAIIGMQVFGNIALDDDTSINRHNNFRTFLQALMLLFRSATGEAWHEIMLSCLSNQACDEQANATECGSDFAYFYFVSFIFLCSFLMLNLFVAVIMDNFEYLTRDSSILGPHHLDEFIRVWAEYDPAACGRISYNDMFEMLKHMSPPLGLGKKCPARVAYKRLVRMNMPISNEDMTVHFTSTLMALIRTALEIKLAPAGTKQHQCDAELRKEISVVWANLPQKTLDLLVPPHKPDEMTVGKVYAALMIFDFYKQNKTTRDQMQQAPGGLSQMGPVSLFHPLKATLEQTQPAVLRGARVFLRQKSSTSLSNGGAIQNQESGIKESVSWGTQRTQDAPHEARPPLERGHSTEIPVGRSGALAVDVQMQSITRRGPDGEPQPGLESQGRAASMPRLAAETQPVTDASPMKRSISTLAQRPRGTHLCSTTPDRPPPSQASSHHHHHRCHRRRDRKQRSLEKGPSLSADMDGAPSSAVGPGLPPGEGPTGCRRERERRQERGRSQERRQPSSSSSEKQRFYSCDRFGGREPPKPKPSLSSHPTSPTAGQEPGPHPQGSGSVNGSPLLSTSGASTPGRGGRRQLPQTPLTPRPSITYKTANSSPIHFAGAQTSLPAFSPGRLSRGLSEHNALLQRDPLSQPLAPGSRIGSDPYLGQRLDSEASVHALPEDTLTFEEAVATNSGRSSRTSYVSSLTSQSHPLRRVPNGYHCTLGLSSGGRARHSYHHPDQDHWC
T1 sequence (P54284 whole entry partner): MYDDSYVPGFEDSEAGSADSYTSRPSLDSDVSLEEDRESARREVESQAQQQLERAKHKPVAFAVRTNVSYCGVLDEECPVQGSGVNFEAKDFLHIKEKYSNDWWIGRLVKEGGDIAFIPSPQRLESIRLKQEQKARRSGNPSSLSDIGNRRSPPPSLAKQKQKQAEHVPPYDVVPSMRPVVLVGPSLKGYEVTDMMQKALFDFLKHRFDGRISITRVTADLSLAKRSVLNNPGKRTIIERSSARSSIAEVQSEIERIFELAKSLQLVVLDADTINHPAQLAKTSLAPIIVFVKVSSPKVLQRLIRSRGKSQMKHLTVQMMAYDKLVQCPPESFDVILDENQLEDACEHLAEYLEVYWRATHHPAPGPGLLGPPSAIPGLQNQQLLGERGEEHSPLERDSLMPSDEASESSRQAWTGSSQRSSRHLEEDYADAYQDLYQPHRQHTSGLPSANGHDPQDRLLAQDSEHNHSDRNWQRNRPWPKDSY
T1 sequence (P54289 25-956 partner limits assumed): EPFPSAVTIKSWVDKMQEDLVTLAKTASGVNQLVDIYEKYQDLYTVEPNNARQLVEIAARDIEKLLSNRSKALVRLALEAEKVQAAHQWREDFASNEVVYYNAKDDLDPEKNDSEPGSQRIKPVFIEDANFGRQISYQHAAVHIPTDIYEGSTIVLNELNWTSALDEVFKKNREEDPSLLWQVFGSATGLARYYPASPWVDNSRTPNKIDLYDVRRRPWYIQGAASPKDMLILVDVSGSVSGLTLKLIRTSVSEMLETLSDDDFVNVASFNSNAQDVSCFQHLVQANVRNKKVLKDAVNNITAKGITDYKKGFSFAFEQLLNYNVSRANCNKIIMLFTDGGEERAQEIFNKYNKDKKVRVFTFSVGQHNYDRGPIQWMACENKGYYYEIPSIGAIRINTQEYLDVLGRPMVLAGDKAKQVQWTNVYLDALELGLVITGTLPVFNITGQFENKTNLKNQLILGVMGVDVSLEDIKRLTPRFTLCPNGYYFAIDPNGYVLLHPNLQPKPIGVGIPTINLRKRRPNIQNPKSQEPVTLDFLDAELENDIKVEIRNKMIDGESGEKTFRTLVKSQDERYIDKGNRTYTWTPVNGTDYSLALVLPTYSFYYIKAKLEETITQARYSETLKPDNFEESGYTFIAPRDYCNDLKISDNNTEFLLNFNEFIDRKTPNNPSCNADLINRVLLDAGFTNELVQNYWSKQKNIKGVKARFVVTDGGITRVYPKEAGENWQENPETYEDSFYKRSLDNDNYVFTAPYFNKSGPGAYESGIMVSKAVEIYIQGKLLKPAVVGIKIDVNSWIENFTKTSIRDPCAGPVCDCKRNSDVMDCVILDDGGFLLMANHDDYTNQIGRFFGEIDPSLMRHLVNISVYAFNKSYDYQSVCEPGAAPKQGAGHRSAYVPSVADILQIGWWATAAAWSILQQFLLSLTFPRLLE
T1 sequence (P54289 957-1103 partner limits assumed): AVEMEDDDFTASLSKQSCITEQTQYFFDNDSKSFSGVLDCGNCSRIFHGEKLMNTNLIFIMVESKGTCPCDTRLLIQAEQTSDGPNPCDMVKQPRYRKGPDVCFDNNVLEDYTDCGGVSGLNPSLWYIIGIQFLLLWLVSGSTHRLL
Description: Calcium flux (FLIPR, Calcium 4 dye) in IMR32 cells endogenously expressing human Cav2.2. In kind it is cell-based. As to conditions: 60 minute pre-incubation, 2 μM nifedipine to block L-type channels, depolarized with 80 mM KCl, 5 mM CaCl2, average of n≥2 runs unless marked *. As for the experimental part:
Compounds were tested for effect on calcium flux in cells endogenously expressing human Cav2.2. Specifically, IMR32 cells endogenously expressing human Cav2.2 were assayed for Ca^2+ influx using a no-wash calcium indicator dye (Calcium 4 dye: Molecular Probes) and FLIPR technology (Lubin, M L; et al. Assay and Drug Development Technologies, 2006, 4(6), 689-694). The IMR32 cells were maintained in MEM media containing 10% (v/v) FBS, 1% (v/v) antibiotic/antimitotic, 1% (v/v) sodium pyruvate and 1% (v/v) MEM NEAA. Following dissociation in 0.05% (v/v) trypsin/EDTA, cells were seeded into black 1×96-well plates (Corning Cellbind) at a density of 1−1.2×10^5 cells/well and incubated in the maintenance media above for 48 hours at 37° C. Immediately prior to performing the assay the media was removed and cells were loaded for 1.5 hours with 1× Calcium 4 dye prepared in HBSS (137 mM NaCl, 5.4 mM KCl, 0.25 mM Na2HPO4, 0.44 mM KH2PO4, 1.3 mM CaCl2, 1 mM MgSO4, 4.2 mM NaHCO3) containing HEPES pH 7.4 at room temperature. After dye loading and a subsequent 60 minute pre-incubation with compounds (full log dilutions from 10 μM to 0.1 nM) in the presence of 1.3 mM CaCl2 and 2 μM nifedipine to block endogenous L-type channels, the external Ca^2+ concentration was increased to 5 mM CaCl2 and the cells concomitantly depolarized with 80 mM KCl to assay channel activity.
To determine the IC50 values, the percent inhibition of the compound at each concentration was determined relative to the activity in the absence of inhibitor, and data was fitted using non-linear regression sigmoidal dose response curve analysis with GraphPad Prism®. Unless otherwise indicated (*), the reported values are average values from at least two runs (i.e., n≧2).
(A change in cytosolic calcium serves as a functional read-out for many receptors and channels.)
In general, IC50 refers to the concentration at which inhibition is half-maximal. `O=C1CCN(S(=O)(=O)c2ccc(C(F)(F)F)cc2)C[C@@H]2C[C@H](Oc3cnc(C4CC4)cn3)CN12` [Example 61, (8S,9aS)-8-[(5-cyclopropylpyrazin-2-yl)oxy]-2-{[4-(trifluoromethyl)phenyl]sulfonyl}octahydro-5H-pyrrolo[1,2-a][1,4]diazepin-5-one]: the IC50 came out at 1.2 µM.
On to `O=C(Cc1cccc(C(F)(F)F)c1)N1CCC(=O)N2C[C@H](Oc3cnc(C4CC4)cn3)C[C@H]2C1` [Example 39], for which the IC50 came out at 2.08 µM.
Consider `O=C1CCN(c2ncc(C(F)(F)F)cc2Cl)C[C@@H]2C[C@@H](Oc3cnc(C4CC4)cn3)CN12` [Example 49, (8R,9aS)-2-[3-chloro-5-(trifluoromethyl)pyridin-2-yl]-8-[(5-cyclopropylpyrazin-2-yl)oxy]octahydro-5H-pyrrolo[1,2-a][1,4]diazepin-5-one], for which the IC50 turned out to be 2.13 µM.
Turning to `O=C1CCN(Cc2ccc(OC(F)(F)F)cc2)C[C@H]2C[C@H](Oc3cnc(C4CC4)cn3)CN12` [Example 62, (8S,9aR)-8-[(5-cyclopropylpyrazin-2-yl)oxy]-2-[4-(trifluoromethoxy)benzyl]octahydro-5H-pyrrolo[1,2-a][1,4]diazepin-5-one], the IC50 was found to be 3.23 µM.
As for `O=C(c1cccc(OC(F)(F)F)c1)N1CCCN2C[C@H](Oc3cnc(C4CC4)cn3)C[C@H]2C1` [Example 9, [(8R,9aS)-8-[(5-cyclopropylpyrazin-2-yl)oxy]hexahydro-1H-pyrrolo[1,2-a][1,4]diazepin-2(3H)-yl][3-(trifluoromethoxy)phenyl]methanone], the IC50 was 1.35 µM.
With `O=C(c1ccc(C(F)(F)F)cc1)N1CCC(=O)N2C[C@H](Oc3cnc(C4CC4)cn3)C[C@H]2C1` [Example 33, (8R,9aS)-8-[(5-cyclopropylpyrazin-2-yl)oxy]-2-[4-(trifluoromethyl)benzoyl]octahydro-5H-pyrrolo[1,2-a][1,4]diazepin-5-one] the figure was 3.73 µM.
Turning to `O=C(c1cccc(OC(F)(F)F)c1)N1CCC(=O)N2C[C@H](Oc3cnc(C4CC4)cn3)C[C@H]2C1` [Example 37, (8R,9aS)-8-[(5-cyclopropylpyrazin-2-yl)oxy]-2-[3-(trifluoromethoxy)benzoyl]octahydro-5H-pyrrolo[1,2-a][1,4]diazepin-5-one], the IC50 came to 1.14 µM.
In the case of `O=C(c1ccc(F)c(Cl)c1)N1CCCN2C[C@H](Oc3cnc(C4CC4)cn3)C[C@H]2C1` [Example 16, (3-chloro-4-fluorophenyl)[(8R,9aS)-8-[(5-cyclopropylpyrazin-2-yl)oxy]hexahydro-1H-pyrrolo[1,2-a][1,4]diazepin-2(3H)-yl]methanone], the IC50 was found to be 2.3 µM.
Turning to `O=C1CCN(c2ncc(C(F)(F)F)cc2F)C[C@@H]2C[C@@H](Oc3cnc(C4CC4)cn3)CN12` [Example 50, (8R,9aS)-8-[(5-cyclopropylpyrazin-2-yl)oxy]-2-[3-fluoro-5-(trifluoromethyl)pyridin-2-yl]octahydro-5H-pyrrolo[1,2-a][1,4]diazepin-5-one], the IC50 was 2.46 µM.
With `O=C(c1cc(C(F)(F)F)ccc1F)N1CCCN2C[C@H](Oc3cnc(C4CC4)cn3)C[C@H]2C1` [Example 17, [(8R,9aS)-8-[(5-cyclopropylpyrazin-2-yl)oxy]hexahydro-1H-pyrrolo[1,2-a][1,4]diazepin-2(3H)-yl][2-fluoro-5-(trifluoromethyl)phenyl]methanone] the figure was 1.58 µM.
With `O=C(c1cccc(C(F)(F)F)c1)N1CCC(=O)N2C[C@@H](Oc3cnc(C4CC4)cn3)C[C@@H]2C1` [Example 63, (8S,9aR)-8-[(5-cyclopropylpyrazin-2-yl)oxy]-2-[3-(trifluoromethyl)benzoyl]octahydro-5H-pyrrolo[1,2-a][1,4]diazepin-5-one] the figure was 22.5 µM.
Turning to `O=C1CCN(Cc2cccc(OC(F)(F)F)c2)C[C@@H]2C[C@@H](Oc3cnc(C4CC4)cn3)CN12` [Example 43, (8R,9aS)-8-[(5-cyclopropylpyrazin-2-yl)oxy]-2-[3-(trifluoromethoxy)benzyl]octahydro-5H-pyrrolo[1,2-a][1,4]diazepin-5-one], the IC50 is 1.11 µM.
With `O=C1[C@H](Oc2ccc(C(F)(F)F)cn2)C[C@H]2CN(S(=O)(=O)c3cccc(C(F)(F)F)c3)CCCN12` [Example 4, (8R,9aS)-2-{[3-(trifluoromethyl)phenyl]sulfonyl}-8-{[5-(trifluoromethyl)pyridin-2-yl]oxy}octahydro-7H-pyrrolo[1,2-a][1,4]diazepin-7-one], the half-maximal inhibitory concentration (IC50) worked out at 0.88 µM.
Turning to `O=C1[C@@H](Oc2ccc(C(F)(F)F)cn2)C[C@H]2CN(S(=O)(=O)c3ccc(C(F)(F)F)cc3)CCCN12` [Example 5, (8S,9aS)-2-{[4-(trifluoromethyl)phenyl]sulfonyl}-8-{[5-(trifluoromethyl)pyridin-2-yl]oxy}octahydro-7H-pyrrolo[1,2-a][1,4]diazepin-7-one], the IC50 came out at 1.76 µM.
With `O=C1CCN(S(=O)(=O)c2ccc(C(F)(F)F)cc2)C[C@@H]2C[C@@H](Oc3ccc(C(F)(F)F)nc3)CN12` [Example 54, (8R,9aS)-2-{[4-(trifluoromethyl)phenyl]sulfonyl}-8-{[6-(trifluoromethyl)pyridin-3-yl]oxy}octahydro-5H-pyrrolo[1,2-a][1,4]diazepin-5-one], the IC50 stood at 1.29 µM.
With `O=C1[C@@H]2C[C@@H](Oc3cnc(C4CC4)cn3)CN2CCCN1Cc1ccc(F)c(C(F)(F)F)c1` [Example 26, (8R,9aS)-8-[(5-cyclopropylpyrazin-2-yl)oxy]-2-[4-fluoro-3-(trifluoromethyl)benzyl]octahydro-1H-pyrrolo[1,2-a][1,4]diazepin-1-one] the figure was 1.1 µM; with `O=C1[C@@H]2C[C@@H](Oc3cnc(C4CC4)cn3)CN2CCCN1Cc1cccc(C(F)(F)F)c1` [Example 22, (8R,9aS)-8-[(5-cyclopropylpyrazin-2-yl)oxy]-2-[3-(trifluoromethyl)benzyl]octahydro-1H-pyrrolo[1,2-a][1,4]diazepin-1-one], 1.72 µM.
With `FC(F)(F)c1cccc(N2CCCN3C[C@H](Oc4cnc(C5CC5)cn4)C[C@H]3C2)n1` [Example 20, (8R,9aS)-8-[(5-cyclopropylpyrazin-2-yl)oxy]-2-[6-(trifluoromethyl)pyridin-2-yl]octahydro-1H-pyrrolo[1,2-a][1,4]diazepane] the figure was 0.75 µM; with `O=C(c1ccc(OC(F)(F)F)cc1)N1CCC(=O)N2C[C@H](Oc3cnc(C4CC4)cn3)C[C@H]2C1` [Example 38, (8R,9aS)-8-[(5-cyclopropylpyrazin-2-yl)oxy]-2-[4-(trifluoromethoxy)benzoyl]octahydro-5H-pyrrolo[1,2-a][1,4]diazepin-5-one], 2.81 µM; with `O=C1[C@H](Oc2cnc(C3CC3)cn2)C[C@H]2CN(c3ccc(C(F)(F)F)cn3)CCCN12` [Example 21, (8R,9aS)-8-[(5-cyclopropylpyrazin-2-yl)oxy]-2-[5-(trifluoromethyl)pyridin-2-yl]octahydro-7H-pyrrolo[1,2-a][1,4]diazepin-7-one], 3.47 µM.
Regarding `O=C1CCN(Cc2cccc(C(F)(F)F)c2)C[C@@H]2C[C@@H](Oc3ccc(C(F)(F)F)cn3)CN12` [Example 45, (8R,9aS)-2-[3-(trifluoromethyl)benzyl]-8-{[5-(trifluoromethyl)pyridin-2-yl]oxy}octahydro-5H-pyrrolo[1,2-a][1,4]diazepin-5-one], the IC50 came to 0.62 µM.
